Patent publication US20020137929A1, “1 - (3-heterocyclylphenyl) isothiourea, -isourea, -guanidine and -amidine herbicidal agents” (Intellectual Property Department, BASF Aktiengesellschaft, priority 1998, published 2002)

Assays:
CASOB (Sicklepod) = experiment: Postemergence herbicidal evaluation; type: in vivo, Cassia obtusifolia; settings: postemergence
Outline: (§1)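 Herbicidal effect was judged by eye on a 0–9 scale covering stand, vigor, deformity, size and chlorosis, compared with controls, four to five weeks after seedlings about two weeks old were sprayed (40 psi, ~0.0156–0.500 kg/ha).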

GALAP (Galium) = experiment: Postemergence herbicidal evaluation; type: in vivo, Galium aparine; settings: postemergence
Outline: as §1

ZEAMX (Corn, Field) [1] = experiment: Postemergence herbicidal evaluation; type: in vivo, Zea mays; settings: postemergence
Outline: as §1

AMBEL (Ragweed, Common) = experiment: Preemergence herbicidal evaluation; type: in vivo, Ambrosia artemisifolia; settings: rated 4-5 weeks after treatment
Outline: (§2)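 Steps: mix seeds into potting soil; plant atop ~1 inch soil; spray compound in aqueous acetone (~0.0156-0.500 kg/ha equivalent); maintain in greenhouse with watering; rate visually 0-9 versus control at 4-5 weeks.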

[2] = tested on: CHEAL (Lambsquarters, Common); experiment: Preemergence herbicidal evaluation; type: in vivo, Chenopodium album; settings: rated 4-5 weeks after treatment
Outline: as §2

[3] = tested on: IPOHE (Morningglory, Ivyleaf); experiment: Preemergence herbicidal evaluation; type: in vivo, Ipomoea hederacea; settings: rated 4-5 weeks after treatment
Outline: as §2

ORYSAT (Rice, Tebonnet) = experiment: Preemergence herbicidal evaluation; type: in vivo, Oryza sativa, (L.) Tebonnet; settings: rated 4-5 weeks after treatment
Outline: as §2

[4] = tested on: TRZAWR (Wheat, Winter, cv Riband); experiment: Preemergence herbicidal evaluation; type: in vivo, Triticum aestivum; settings: rated 4-5 weeks after treatment
Outline: as §2

ZEAMX (Corn, Field) [5] = experiment: Preemergence herbicidal evaluation; type: in vivo, Zea mays; settings: rated 4-5 weeks after treatment
Outline: as §2

[6] = tested on: ECHORC (Watergrass (Calif.)); experiment: Preemergence weed control under flooded paddy conditions; type: in vivo, Echinochloa oryzoides; settings: rated 3-4 weeks after treatment
Outline: (§3)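 Ratings on a 0-9 visual scale cover stand, vigor, malformation, size, chlorosis and overall appearance relative to a control, taken three to four weeks post-treatment. Application was into flood water over freshly sown silt loam at roughly 0.0313 to 0.500 kg/ha.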

CYPIR (Rice Flatsedge) = experiment: as above; type: in vivo, Cyperus iria; settings: rated 3-4 weeks after treatment
Outline: as §3

CYPSE (Flatsedge) = experiment: as above; type: in vivo, Cyperus serotinus; settings: rated 3-4 weeks after treatment
Outline: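 Flooded-pot preemergence screen with silt loam and seeds in the upper 0.5 cm. Dose about 0.0313 to 0.500 kg/ha, delivered into flood water; visual 0-9 score after 3 to 4 weeks.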

COCCOC(=O)CN1C(=O)CSC1=Nc1cc(-n2c(=O)cc(C(F)(F)F)n(C)c2=O)c(F)cc1Cl [Compound 107, 2-Methoxyethyl 2-{{2-chloro-5-[3,6-dihydro-3-methyl-2,6-dioxo-4-(trifluoromethyl)-1(2H)-pyrimidinyl]-4-fluorophenyl}imino}-4-oxo-3-thiazolidineacetate]
1.0: Preemergence herbicidal rating IPOHE ([3]; rate 0.1250 kg/ha) | Preemergence herbicidal rating ZEAMX (ZEAMX (Corn, Field) [5]; rate 0.1250 kg/ha)
0.0: herbicidal rating CASOB (CASOB (Sicklepod); rate 0.0158 kg/ha) | herbicidal rating CASOB (CASOB (Sicklepod); rate 0.0315 kg/ha) | herbicidal rating CASOB (CASOB (Sicklepod); rate 0.0630 kg/ha) | herbicidal rating GALAP (GALAP (Galium); rate 0.0158 kg/ha) | herbicidal rating GALAP (GALAP (Galium); rate 0.0315 kg/ha) | herbicidal rating GALAP (GALAP (Galium); rate 0.0630 kg/ha) | Preemergence herbicidal rating AMBEL (AMBEL (Ragweed, Common); rate 0.0313 kg/ha) | Preemergence herbicidal rating AMBEL (AMBEL (Ragweed, Common); rate 0.0625 kg/ha) | Preemergence herbicidal rating AMBEL (AMBEL (Ragweed, Common); rate 0.1250 kg/ha) | Preemergence herbicidal rating IPOHE ([3]; rate 0.0313 kg/ha) | Preemergence herbicidal rating IPOHE ([3]; rate 0.0625 kg/ha) | Preemergence herbicidal rating ORYSAT (ORYSAT (Rice, Tebonnet); rate 0.0313 kg/ha) | Preemergence herbicidal rating ORYSAT (ORYSAT (Rice, Tebonnet); rate 0.0625 kg/ha) | Preemergence herbicidal rating ORYSAT (ORYSAT (Rice, Tebonnet); rate 0.1250 kg/ha) | Preemergence herbicidal rating TRZAWR ([4]; rate 0.0313 kg/ha) | Preemergence herbicidal rating TRZAWR ([4]; rate 0.0625 kg/ha) | Preemergence herbicidal rating TRZAWR ([4]; rate 0.1250 kg/ha) | Preemergence herbicidal rating ZEAMX (ZEAMX (Corn, Field) [5]; rate 0.0313 kg/ha) | Preemergence herbicidal rating ZEAMX (ZEAMX (Corn, Field) [5]; rate 0.0625 kg/ha) | ECHORC herbicidal effect rating ([6]; 0.0313 kg/ha) | CYPIR herbicidal effect rating (CYPIR (Rice Flatsedge); 0.0313 kg/ha) | CYPIR herbicidal effect rating (CYPIR (Rice Flatsedge); 0.0625 kg/ha) | CYPSE herbicidal effect rating (CYPSE (Flatsedge); 0.0313 kg/ha) | CYPSE herbicidal effect rating (CYPSE (Flatsedge); 0.0625 kg/ha) | CYPSE herbicidal effect rating (CYPSE (Flatsedge); 0.1250 kg/ha)
6.0: herbicidal rating ZEAMX (ZEAMX (Corn, Field) [1]; rate 0.0315 kg/ha) | Preemergence herbicidal rating CHEAL ([2]; rate 0.0625 kg/ha)
9.0: Preemergence herbicidal rating CHEAL ([2]; rate 0.1250 kg/ha) | Preemergence herbicidal rating CHEAL ([2]; rate 0.2500 kg/ha)
7.0: herbicidal rating ZEAMX (ZEAMX (Corn, Field) [1]; rate 0.0630 kg/ha) | Preemergence herbicidal rating IPOHE ([3]; rate 0.2500 kg/ha) | CYPIR herbicidal effect rating (CYPIR (Rice Flatsedge); 0.2500 kg/ha)
2.0: Preemergence herbicidal rating AMBEL (AMBEL (Ragweed, Common); rate 0.2500 kg/ha) | Preemergence herbicidal rating ORYSAT (ORYSAT (Rice, Tebonnet); rate 0.2500 kg/ha)
4.0: herbicidal rating ZEAMX (ZEAMX (Corn, Field) [1]; rate 0.0158 kg/ha) | Preemergence herbicidal rating TRZAWR ([4]; rate 0.2500 kg/ha) | Preemergence herbicidal rating ZEAMX (ZEAMX (Corn, Field) [5]; rate 0.2500 kg/ha) | ECHORC herbicidal effect rating ([6]; 0.0625 kg/ha) | ECHORC herbicidal effect rating ([6]; 0.1250 kg/ha) | ECHORC herbicidal effect rating ([6]; 0.2500 kg/ha) | CYPIR herbicidal effect rating (CYPIR (Rice Flatsedge); 0.1250 kg/ha)

CCCCOC(=O)CN1C(=O)CSC1=Nc1cc(-n2c(=O)cc(C(F)(F)F)n(C)c2=O)c(F)cc1Cl [Compound 111]
7.0: herbicidal rating ZEAMX (ZEAMX (Corn, Field) [1]; rate 0.0630 kg/ha) | Preemergence herbicidal rating AMBEL (AMBEL (Ragweed, Common); rate 0.2500 kg/ha) | Preemergence herbicidal rating IPOHE ([3]; rate 0.2500 kg/ha) | ECHORC herbicidal effect rating ([6]; 0.2500 kg/ha)
1.0: herbicidal rating CASOB (CASOB (Sicklepod); rate 0.0315 kg/ha) | herbicidal rating CASOB (CASOB (Sicklepod); rate 0.0630 kg/ha) | herbicidal rating GALAP (GALAP (Galium); rate 0.0630 kg/ha) | Preemergence herbicidal rating ORYSAT (ORYSAT (Rice, Tebonnet); rate 0.1250 kg/ha) | Preemergence herbicidal rating TRZAWR ([4]; rate 0.1250 kg/ha)
0.0: herbicidal rating CASOB (CASOB (Sicklepod); rate 0.0158 kg/ha) | herbicidal rating GALAP (GALAP (Galium); rate 0.0158 kg/ha) | herbicidal rating GALAP (GALAP (Galium); rate 0.0315 kg/ha) | Preemergence herbicidal rating AMBEL (AMBEL (Ragweed, Common); rate 0.0156 kg/ha) | Preemergence herbicidal rating AMBEL (AMBEL (Ragweed, Common); rate 0.0313 kg/ha) | Preemergence herbicidal rating AMBEL (AMBEL (Ragweed, Common); rate 0.0625 kg/ha) | Preemergence herbicidal rating CHEAL ([2]; rate 0.0313 kg/ha) | Preemergence herbicidal rating IPOHE ([3]; rate 0.0156 kg/ha) | Preemergence herbicidal rating IPOHE ([3]; rate 0.0313 kg/ha) | Preemergence herbicidal rating IPOHE ([3]; rate 0.0625 kg/ha) | Preemergence herbicidal rating ORYSAT (ORYSAT (Rice, Tebonnet); rate 0.0156 kg/ha) | Preemergence herbicidal rating ORYSAT (ORYSAT (Rice, Tebonnet); rate 0.0313 kg/ha) | Preemergence herbicidal rating ORYSAT (ORYSAT (Rice, Tebonnet); rate 0.0625 kg/ha) | Preemergence herbicidal rating TRZAWR ([4]; rate 0.0156 kg/ha) | Preemergence herbicidal rating TRZAWR ([4]; rate 0.0313 kg/ha) | Preemergence herbicidal rating TRZAWR ([4]; rate 0.0625 kg/ha) | Preemergence herbicidal rating ZEAMX (ZEAMX (Corn, Field) [5]; rate 0.0156 kg/ha) | Preemergence herbicidal rating ZEAMX (ZEAMX (Corn, Field) [5]; rate 0.0313 kg/ha) | Preemergence herbicidal rating ZEAMX (ZEAMX (Corn, Field) [5]; rate 0.0625 kg/ha) | ECHORC herbicidal effect rating ([6]; 0.0313 kg/ha) | CYPIR herbicidal effect rating (CYPIR (Rice Flatsedge); 0.0313 kg/ha)
5.0: Preemergence herbicidal rating ORYSAT (ORYSAT (Rice, Tebonnet); rate 0.2500 kg/ha) | CYPIR herbicidal effect rating (CYPIR (Rice Flatsedge); 0.2500 kg/ha)
6.5: herbicidal rating ZEAMX (ZEAMX (Corn, Field) [1]; rate 0.0158 kg/ha) | herbicidal rating ZEAMX (ZEAMX (Corn, Field) [1]; rate 0.0315 kg/ha)
3.0: ECHORC herbicidal effect rating ([6]; 0.0625 kg/ha) | CYPIR herbicidal effect rating (CYPIR (Rice Flatsedge); 0.0625 kg/ha)
4.0: Preemergence herbicidal rating TRZAWR ([4]; rate 0.2500 kg/ha) | Preemergence herbicidal rating ZEAMX (ZEAMX (Corn, Field) [5]; rate 0.1250 kg/ha) | Preemergence herbicidal rating ZEAMX (ZEAMX (Corn, Field) [5]; rate 0.2500 kg/ha) | CYPIR herbicidal effect rating (CYPIR (Rice Flatsedge); 0.1250 kg/ha) | CYPSE herbicidal effect rating (CYPSE (Flatsedge); 0.0625 kg/ha)
9.0: Preemergence herbicidal rating CHEAL ([2]; rate 0.0625 kg/ha) | Preemergence herbicidal rating CHEAL ([2]; rate 0.1250 kg/ha) | Preemergence herbicidal rating CHEAL ([2]; rate 0.2500 kg/ha) | Preemergence herbicidal rating IPOHE ([3]; rate 0.1250 kg/ha) | CYPSE herbicidal effect rating (CYPSE (Flatsedge); 0.1250 kg/ha) | CYPSE herbicidal effect rating (CYPSE (Flatsedge); 0.2500 kg/ha)
6.0: Preemergence herbicidal rating AMBEL (AMBEL (Ragweed, Common); rate 0.1250 kg/ha) | ECHORC herbicidal effect rating ([6]; 0.1250 kg/ha)
